Where a name gives a salt, the structure may show the parent alone.
Assays:
[1] = system: patients with relapsed small cell lung cancer; assay: Multicenter, randomized, double-blind, placebo-controlled phase II clinical study; type: in vivo, human
Method: A multicenter, randomized, double-blind and placebo-controlled phase II clinical study was conducted for patients with relapsed small cell lung cancer characterized by presence of measurable lesions and prior standard treatment. In this study; 120 patients were enrolled and randomized to receive oral administration of 1 capsule of the dihydrochloride of the compound of formula I at 12 mg/0 mg once daily. The oral administration was continued for 2 weeks and interrupted for 1 week, i.e., 1 treatment cycle took 3 weeks (21 days). These patients aged 18-75 were treated with the capsule of the dihydrochloride of the compound of formula I and placebo control, and patients who had previously used other targeted drugs (such as sunitinib, bevacizumab, and endostar) and immunotargeted drugs were excluded. In the case of progressive disease (PD) determined by the response evaluation criteria or judged clinically; treatment with other anti-tumor drugs (such as chemotherapy; targeted therapy or biological agent therapy) influencing the judgment of efficacy; unexpected pregnancy; death and the like, the administration was interrupted (terminated) for a subject. For patients with disease under control (CR+PR+SD) and tolerable adverse reactions, the administration was continued. For patients who were unsuitable for continued administration judged by the investigator or were evaluated as PD according to RECIST 1.1 criteria, the administration was terminated. During the administration, depending on the drug-related toxicity degree and the possible efficacy benefit of a patient, the investigator determined whether to adjust the dosage, and the adjustable dosage was 8 mg/0 mg or 10 mg/0 mg. The primary efficacy endpoint was progression-free survival (PFS), and the secondary efficacy endpoints were overall survival (OS), objective response rate (ORR) (CR+PR), disease control rate (DCR) (CR+PR+SD), quality of life score and safety: The objective efficacy endpoint was evaluated according to the response evaluation criteria in solid tumor (RECIST 1.1). All statistical analyses were conducted using the SAS 9.2 statistical analysis software programming. All statistical tests were conducted using bilateral test. When P value≤0.05, the tested difference was considered statistically significant, with the confidence interval being 95% confidence. For the primary efficacy endpoint PFS, 50% (median) PFS and PFS at different time points after the start of the treatment were calculated by using the product limit method according to the data situation, and the two groups were compared using Log-Rank test. For OS, 50% (median) OS was calculated by using the product limit method according to the data situation, and the two groups were compared using Log-Rank test. The full analysis set (FAS) was used for the statistical dataset.

[2] = system: small cell lung cancer with liver and brain metastases; assay: Case of a patient with small cell lung cancer with liver and brain metastases (CT follow-up); type: in vivo, human
Method: A person was pathologically diagnosed with small cell lung cancer of the left lower lobe in October 2013 after surgery. On Dec. […] The patient was admitted to the hospital for one cycle of liposomal paclitaxel+carboplatin+temozolomide chemotherapy and was discharged on December 28.
One cycle of TC regimen (paclitaxel+carboplatin) was started on Jan. 17, 2017, and the efficacy was evaluated as PD on Feb. 10, 2017. One cycle of IP regimen (irinotecan 120 mg d1, 80 mg d8; cisplatin 100 mg d1) was started on Feb. 16, 2017.
On May 12, 2017, oral administration of a capsule of the dihydrochloride of the compound of formula I at 12 mg was started once daily for 2 weeks and interrupted for 1 week, every 3-week as one treatment cycle until PD or intolerance.
The CT results were as follows: • After the first treatment cycle: target lesion: 63 mm; non-target lesions: non-CR/non-PD. • After the second treatment cycle: target lesion: 65 mm; non-target lesions: non-CR/non-PD. • After the fourth treatment cycle: target lesion: 66 mm; non-target lesions: non-CR/non-PD. • After the sixth treatment cycle: target lesion: 72 mm; non-target lesions: non-CR/non-PD. 1-20. (canceled)

[3] = CR or PR achieved with second-line chemotherapy: No
[4] = CR or PR achieved with second-line chemotherapy: Yes
[5] = all patients, FAS, capsule 12 mg oral once daily, 2 weeks on / 1 week off
[6] = brain metastasis upon enrollment: Yes
[7] = clinical stage before randomization: extended stage
[8] = after the fourth treatment cycle
[9] = after the second treatment cycle
[10] = after the sixth treatment cycle

Q: For `COc1cc2c(Oc3ccc4[nH]c(C)cc4c3F)ccnc2cc1OCC1(N)CC1` [1-[[[4-(4-fluoro-2-methyl-1H-indol-5-yl)oxy-6-methoxyquinolin-7-yl]oxy]methyl]cyclopropylamine dihydrochloride], which “Overall survival P50” value [1, 3] is on record?
A: 7.29 month

Q: And the “Progression-free survival P50” value [1, 3]?
A: 4.11 month

Q: What about the “Overall survival P50” value [1, 4] of the same molecule?
A: 6.80 month

Q: What about the “Progression-free survival P50” value [1, 4] of the same molecule?
A: 2.79 month

Q: What about the “Overall survival of patients (OS), Median (95% CI)” value [1, 5] of the same molecule?
A: 7.29(6.50, 10.51) month

Q: What about the “Progression-free survival of patients (PFS), Median (95% CI)” value [1, 5] of the same molecule?
A: 4.07(2.79, 4.24) month

Q: What about the “Overall survival P50” value ([1]; brain metastasis upon enrollment: No) of the same molecule?
A: 8.80 month

Q: What about the “Overall survival P50” value [1, 6] of the same molecule?
A: 6.08 month

Q: And the “Progression-free survival P50” value [1, 6]?
A: 3.84 month

Q: And the “Overall survival P50” value ([1]; chemotherapy line: second-line)?
A: 7.29 month

Q: And the “Progression-free survival P50” value ([1]; chemotherapy line: second-line)?
A: 4.11 month

Q: What about the “Overall survival P50” value [1, 7] of the same molecule?
A: 8.05 month

Q: What about the “Progression-free survival P50” value [1, 7] of the same molecule?
A: 3.84 month

Q: What about the “Progression-free survival P50” value ([1]; clinical stage before randomization: limited stage) of the same molecule?
A: 4.83 month

Q: What about the “Progression-free survival P50” value ([1]; treated with docetaxel: No) of the same molecule?
A: 4.07 month

Q: What about the “Progression-free survival P50” value ([1]; treated with docetaxel: Yes) of the same molecule?
A: 2.83 month

Q: What about the “Progression-free survival P50” value ([1]; treated with irinotecan + platinum: No) of the same molecule?
A: 2.83 month

Q: And the “Progression-free survival P50” value ([1]; treated with irinotecan + platinum: Yes)?
A: 4.07 month

Q: And the “Progression-free survival P50” value ([1]; treated with paclitaxel: No)?
A: 4.11 month

Q: What about the “Progression-free survival P50” value ([1]; treated with paclitaxel: Yes) of the same molecule?
A: 2.86 month

Q: And the “target lesion (CT)” value ([2]; after the first treatment cycle, liver nodes, 64 mm before treatment, 12 mg once daily 2 weeks on / 1 week off)?
A: 63 mm

Q: What about the “non-target lesions (CT)” value ([2]; after the first treatment cycle, multiple metastases in the brain) of the same molecule?
A: non-CR/non-PD

Q: And the “non-target lesions (CT)” value [2, 8]?
A: non-CR/non-PD

Q: What about the “target lesion (CT)” value [2, 8] of the same molecule?
A: 66 mm

Q: What about the “non-target lesions (CT)” value [2, 9] of the same molecule?
A: non-CR/non-PD

Q: What about the “target lesion (CT)” value [2, 9] of the same molecule?
A: 65 mm

Q: What about the “non-target lesions (CT)” value [2, 10] of the same molecule?
A: non-CR/non-PD

Q: What about the “target lesion (CT)” value [2, 10] of the same molecule?
A: 72 mm

Q: What about the “tolerability of the administration” value ([2]; capsule 12 mg oral once daily, 2 weeks on / 1 week off) of the same molecule?
A: well tolerated

Source: patent US20250367187A1, “QUINOLINE DERIVATIVE USED FOR TREATING SMALL CELL LUNG CANCER” (CHIA TAI TIANQING PHARMACEUTICAL GROUP CO., LTD., priority 2018, published 2025)
